Data taken from patent US6737383B1, “Herbicidal oxadiazolidines” (priority 1999, dated 2004).

Key:
velvetleaf = assay: Test B pre/postemergence velvetleaf; type: in vivo, Abutilon theophrasti; settings: for Velvetleaf plant response rating: scale of 0 to 10 where 0 is no effect and 10 is complete control
Procedure, shortened: (§1)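 Response is a visual 0-to-10 score relative to untreated plants, where 0 means no effect and 10 means complete control, taken twelve to sixteen days after application. Treatments went onto soil at planting and onto foliage of 1- to 4-leaf plants, using a surfactant-containing non-phytotoxic solvent.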

purple nutsedge = assay: Test B pre/postemergence purple nutsedge; type: in vivo, Cyperus rotundus; settings: for Nutsedge plant response rating: scale of 0 to 10 where 0 is no effect and 10 is complete control
Procedure, shortened: as §1

wild oat = assay: Test B pre/postemergence wild oat; type: in vivo, Avena fatua; settings: for Wild oats plant response rating: scale of 0 to 10 where 0 is no effect and 10 is complete control
Procedure, shortened: as §1

blackgrass = assay: Test B pre/postemergence blackgrass; type: in vivo, Alopecurus myosuroides
Procedure, shortened: as §1

cocklebur = assay: Test B pre/postemergence cocklebur; type: in vivo, Xanthium strumarium; settings: for Cocklebur plant response rating: scale of 0 to 10 where 0 is no effect and 10 is complete control
Procedure, shortened: as §1

crabgrass = assay: Test B pre/postemergence crabgrass; type: in vivo, Digitaria sanguinalis; settings: for Crabgrass plant response rating: scale of 0 to 10 where 0 is no effect and 10 is complete control
Procedure, shortened: as §1

bedstraw = assay: Test B pre/postemergence bedstraw; type: in vivo, Galium aparine; settings: for Plant response rating, Bedstraw: Postemergence
Procedure, shortened: as §1

rape = assay: Test B pre/postemergence rape; type: in vivo, Brassica napus; settings: for Rape plant response rating: scale of 0 to 10 where 0 is no effect and 10 is complete control
Procedure, shortened: as §1

corn = assay: Test B pre/postemergence corn; type: in vivo, Zea mays; settings: for Corn plant response rating: scale of 0 to 10 where 0 is no effect and 10 is complete control
Procedure, shortened: as §1

bamyardgrass = assay: Test B flood test barnyardgrass; type: in vivo, Echinochloa crus-galli
Procedure, shortened: (§2)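 Read-out is a visual response score from 0 (no effect) to 10 (complete control), assigned by comparison with untreated controls. Treatment was applied at the 2-leaf stage, and plants stayed in the greenhouse for twelve to sixteen days before scoring.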

soybean = assay: Test B pre/postemergence soybean; type: in vivo, Glycine max; settings: for Soybean plant response rating: scale of 0 to 10 where 0 is no effect and 10 is complete control
Procedure, shortened: as §1

smallflower flatsedge = assay: Test B flood test smallflower flatsedge; type: in vivo, Cyperus difformis
Procedure, shortened: as §2

duck salad = assay: Test B flood test duck salad; type: in vivo, Heteranthera limosa
Procedure, shortened: as §2

rice = assay: Test B flood test rice; type: in vivo, Oryza sativa
Procedure, shortened: as §2

surinam grass = assay: Test B pre/postemergence surinam grass; type: in vivo, Brachiaria decumbens
Procedure, shortened: as §1

wheat = assay: Test B pre/postemergence wheat; type: in vivo, Triticum aestivum; settings: for Wheat plant response rating: scale of 0 to 10 where 0 is no effect and 10 is complete control
Procedure, shortened: as §1

sugar beet = assay: Test B pre/postemergence sugar beet; type: in vivo, Beta vulgaris; settings: for Sugarbeets plant response rating: scale of 0 to 10 where 0 is no effect and 10 is complete control
Procedure, shortened: as §1

[1] = Postemergence, Rate 125 g/ha, scale 0 to 10, 0 is no effect, 10 is complete control
[2] = Preemergence, Rate 62 g/ha, scale 0 to 10 (0 no effect, 10 complete control)
[3] = Rate 500 g/ha, Postemergence, scale 0 to 10, 0 no effect, 10 complete control
[4] = Preemergence, Rate 250 g/ha, scale of 0 to 10 where 0 is no effect and 10 is complete control
[5] = Preemergence, Rate 500 g/ha, scale of 0 to 10 where 0 is no effect and 10 is complete control
[6] = Rate 62 g/ha, Postemergence, scale of 0 to 10 where 0 is no effect and 10 is complete control
[7] = Rate 250 g/ha, Postemergence, scale of 0 to 10 where 0 is no effect and 10 is complete control
[8] = Postemergence (flood test), Rate 125 g/ha, scale 0 to 10, 0 is no effect, 10 is complete control
[9] = Rate 62 g/ha, Postemergence (flood test species), scale of 0 to 10 where 0 is no effect and 10 is complete control
[10] = Rate 500 g/ha, listed under Postemergence (flood test species), scale 0 to 10, 0 no effect, 10 complete control

Compound: CC(C)N(C(=O)n1oc(=O)n(C2CCC2)c1=O)c1ccccc1 [Compound 348]
- Plant response rating, Velvetleaf (velvetleaf; [1]): 2
- Plant response rating, Velvetleaf (velvetleaf; [2]): 3
- Velvetleaf plant response rating (0 to 10 scale) (velvetleaf; Preemergence, Rate 125 g/ha): 3
- Velvetleaf plant response rating (velvetleaf; Preemergence, Rate 250 g/ha): 7
- Velvetleaf plant response rating (velvetleaf; Preemergence, Rate 500 g/ha): 7
- Velvetleaf plant response rating (velvetleaf; Rate 62 g/ha, Postemergence): 2
- Plant response rating, Velvetleaf (velvetleaf; [3]): 6
- Plant response rating, Nutsedge (purple nutsedge; [1]): 0
- Plant response rating, Nutsedge (purple nutsedge; [2]): 0
- Nutsedge plant response rating (0 to 10 scale) (purple nutsedge; Preemergence, Rate 125 g/ha): 0
- Nutsedge plant response rating (purple nutsedge; Preemergence, Rate 250 g/ha): 0
- Nutsedge plant response rating (purple nutsedge; Preemergence, Rate 500 g/ha): 0
- Nutsedge plant response rating (purple nutsedge; Rate 62 g/ha, Postemergence): 0
- Plant response rating, Nutsedge (purple nutsedge; [3]): 6
- Plant response rating, Wild oats (wild oat; [1]): 3
- Plant response rating, Wild oats (wild oat; [2]): 3
- Wild oats plant response rating (0 to 10 scale) (wild oat; Preemergence, Rate 125 g/ha): 4
- Wild oats plant response rating (wild oat; Preemergence, Rate 250 g/ha): 8
- Wild oats plant response rating (wild oat; Preemergence, Rate 500 g/ha): 10
- Wild oats plant response rating (wild oat; Rate 62 g/ha, Postemergence): 2
- Plant response rating, Wild oats (wild oat; [3]): 7
- Plant response rating, Blackgrass (blackgrass; [1]): 3
- Plant response rating, Blackgrass (blackgrass; [2]): 4
- Blackgrass plant response rating (0 to 10 scale) (blackgrass; Preemergence, Rate 125 g/ha): 6
- Blackgrass plant response rating (blackgrass; [4]): 9
- Blackgrass plant response rating (blackgrass; [5]): 9
- Blackgrass plant response rating (blackgrass; [6]): 2
- Plant response rating, Blackgrass (blackgrass; [7]): 6
- Plant response rating, Blackgrass (blackgrass; [3]): 7
- Plant response rating, Cocklebur (cocklebur; [1]): 0
- Plant response rating, Cocklebur (cocklebur; [2]): 0
- Cocklebur plant response rating (0 to 10 scale) (cocklebur; Preemergence, Rate 125 g/ha): 0
- Cocklebur plant response rating (cocklebur; Preemergence, Rate 250 g/ha): 0
- Cocklebur plant response rating (cocklebur; Preemergence, Rate 500 g/ha): 0
- Cocklebur plant response rating (cocklebur; Rate 62 g/ha, Postemergence): 0
- Plant response rating, Cocklebur (cocklebur; [3]): 2
- Plant response rating, Crabgrass (crabgrass; [1]): 2
- Plant response rating, Crabgrass (crabgrass; [2]): 7
- Crabgrass plant response rating (0 to 10 scale) (crabgrass; Preemergence, Rate 125 g/ha): 7
- Crabgrass plant response rating (crabgrass; Preemergence, Rate 250 g/ha): 10
- Crabgrass plant response rating (crabgrass; Preemergence, Rate 500 g/ha): 10
- Crabgrass plant response rating (crabgrass; Rate 62 g/ha, Postemergence): 1
- Plant response rating, Crabgrass (crabgrass; [3]): 6
- Plant response rating, Bedstraw (bedstraw; Rate 125 g/ha, scale 0 to 10, 0 is no effect, 10 is complete control): 2
- Bedstraw plant response rating (bedstraw; [5]): 9
- Plant response rating, Bedstraw (bedstraw; Rate 250 g/ha, scale of 0 to 10 where 0 is no effect and 10 is complete control): 4
- Plant response rating, Bedstraw (bedstraw; Rate 500 g/ha, scale 0 to 10, 0 no effect, 10 complete control): 7
- Plant response rating, Rape (rape; [1]): 0
- Plant response rating, Rape (rape; [2]): 0
- Rape plant response rating (0 to 10 scale) (rape; Preemergence, Rate 125 g/ha): 0
- Rape plant response rating (rape; Preemergence, Rate 250 g/ha): 2
- Rape plant response rating (rape; Preemergence, Rate 500 g/ha): 7
- Rape plant response rating (rape; Rate 62 g/ha, Postemergence): 0
- Plant response rating, Rape (rape; [3]): 5
- Plant response rating, Corn (corn; [1]): 0
- Plant response rating, Corn (corn; [2]): 0
- Corn plant response rating (0 to 10 scale) (corn; Preemergence, Rate 125 g/ha): 2
- Corn plant response rating (corn; Preemergence, Rate 250 g/ha): 2
- Corn plant response rating (corn; Preemergence, Rate 500 g/ha): 9
- Corn plant response rating (corn; Rate 62 g/ha, Postemergence): 0
- Plant response rating, Corn (corn; [3]): 3
- Plant response rating, Barnyardgrass (bamyardgrass; [8]): 2
- Barnyardgrass plant response rating (bamyardgrass; [9]): 2
- Plant response rating, Barnyardgrass (bamyardgrass; Rate 250 g/ha, Postemergence (flood test species), scale of 0 to 10 where 0 is no effect and 10 is complete control): 3
- Plant response rating, Barnyardgrass (bamyardgrass; [10]): 7
- Plant response rating, Soybean (soybean; [1]): 2
- Plant response rating, Soybean (soybean; [2]): 0
- Soybean plant response rating (0 to 10 scale) (soybean; Preemergence, Rate 125 g/ha): 0
- Soybean plant response rating (soybean; Preemergence, Rate 250 g/ha): 0
- Soybean plant response rating (soybean; Preemergence, Rate 500 g/ha): 0
- Soybean plant response rating (soybean; Rate 62 g/ha, Postemergence): 1
- Plant response rating, Soybean (soybean; [3]): 4
- Plant response rating, S. Flatsedge (smallflower flatsedge; [8]): 6
- S. Flatsedge plant response rating (smallflower flatsedge; [9]): 4
- Plant response rating, S. Flatsedge (smallflower flatsedge; [10]): 7
- Plant response rating, Ducksalad (duck salad; [8]): 3
- Ducksalad plant response rating (duck salad; [9]): 0
- Plant response rating, Ducksalad (duck salad; [10]): 4
- Plant response rating, Rice (rice; [8]): 0
- Rice plant response rating (rice; [9]): 0
- Plant response rating, Rice (rice; [10]): 0
- Plant response rating, B. signalgrass (surinam grass; [1]): 1
- B. signalgrass plant response rating (0 to 10 scale, 0 is no effect, 10 is complete control) (surinam grass; Preemergence, Rate 125 g/ha): 3
- B. signalgrass plant response rating (surinam grass; [4]): 5
- B. signalgrass plant response rating (surinam grass; [5]): 7
- B. signalgrass plant response rating (surinam grass; [6]): 0
- Plant response rating, B. signalgrass (surinam grass; [7]): 4
- Plant response rating, B. signalgrass (surinam grass; [3]): 7
- Plant response rating, Wheat (wheat; [1]): 3
- Plant response rating, Wheat (wheat; [2]): 0
- Wheat plant response rating (0 to 10 scale) (wheat; Preemergence, Rate 125 g/ha): 0
- Wheat plant response rating (wheat; Preemergence, Rate 250 g/ha): 0
- Wheat plant response rating (wheat; Preemergence, Rate 500 g/ha): 0
- Wheat plant response rating (wheat; Rate 62 g/ha, Postemergence): 2
- Plant response rating, Wheat (wheat; [3]): 4
- Plant response rating, Sugarbeets (sugar beet; [1]): 0
- Plant response rating, Sugarbeets (sugar beet; [2]): 0
- Sugarbeets plant response rating (0 to 10 scale) (sugar beet; Preemergence, Rate 125 g/ha): 0
- Sugarbeets plant response rating (sugar beet; Preemergence, Rate 250 g/ha): 3
- Sugarbeets plant response rating (sugar beet; Preemergence, Rate 500 g/ha): 6
- Sugarbeets plant response rating (sugar beet; Rate 62 g/ha, Postemergence): 0
- Plant response rating, Sugarbeets (sugar beet; [3]): 3
